Laboratory results reported in PubChem BioAssay AID248 (DTP/NCI, 2004).
“And” between values parts separate entries of the source, which are not always exact repeats. Equal values may be shown once. Toxic doses and inconclusive results are not listed. No stated cut-off is given here; in the data, active means T/C of 150% or more; inactive means T/C below 125%.

System: L1210 leukemia ip in BDF1 mice, survival T/C
Assay: NCI In Vivo Anticancer Drug Screen. Data for tumor model L1210 Leukemia (intraperitoneal) in B6D2F1 (BDF1) mice
Details: endpoint: mean survival time, higher = longer survival
Procedure, shortened: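 Antitumor effect is assessed in tumor-bearing animals. Survival in the compound arm is compared with a vehicle-dosed control arm and expressed as their quotient.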

[1] = dose: 100.0 mg/kg/injection, schedule: Q04DX003 (ip), vehicle: saline
[2] = dose: 200.0 mg/kg/injection, schedule: Q04DX003 (ip), vehicle: saline
[3] = dose: 75.0 mg/kg/injection, schedule: Q01DX001 (ip), vehicle: saline
[4] = dose: 150.0 mg/kg/injection, schedule: Q01DX001 (ip), vehicle: saline
[5] = dose: 100.0 mg/kg/injection, schedule: Q04DX003 (ip), vehicle: Klucel (hydroxypropylcellulose) (HPC)
[6] = dose: 200.0 mg/kg/injection, schedule: Q04DX003 (ip), vehicle: Klucel (hydroxypropylcellulose) (HPC)
[7] = dose: 400.0 mg/kg/injection, schedule: Q04DX003 (ip), vehicle: Klucel (hydroxypropylcellulose) (HPC)
[8] = dose: 100.0 mg/kg/injection, schedule: Q01DX001 (ip), vehicle: saline
[9] = dose: 200.0 mg/kg/injection, schedule: Q01DX001 (ip), vehicle: saline
[10] = dose: 400.0 mg/kg/injection, schedule: Q01DX001 (ip), vehicle: saline
[11] = dose: 100.0 mg/kg/injection, schedule: Q01DX001 (ip), vehicle: carboxymethylcellulose (CMC)
[12] = dose: 100.0 mg/kg/injection, schedule: Q01DX009 (ip), vehicle: saline
[13] = dose: 200.0 mg/kg/injection, schedule: Q01DX009 (ip), vehicle: saline
[14] = dose: 400.0 mg/kg/injection, schedule: Q01DX009 (ip), vehicle: saline
[15] = dose: 400.0 mg/kg/injection, schedule: Q04DX003 (ip), vehicle: saline
[16] = dose: 200.0 mg/kg/injection, schedule: Q01DX001 (ip), vehicle: carboxymethylcellulose (CMC)

Measured: T/C

OC1CC23C(O)CCCC12C1C=CC3C1 (stereo not given)
inactive: dose: 25.0 mg/kg/injection, schedule: Q04DX002 (ip), vehicle: saline with Tween-80 95 % of control | dose: 50.0 mg/kg/injection, schedule: Q04DX002 (ip), vehicle: saline with Tween-80 98 % of control | dose: 100.0 mg/kg/injection, schedule: Q04DX002 (ip), vehicle: saline with Tween-80 98 % of control | dose: 200.0 mg/kg/injection, schedule: Q04DX002 (ip), vehicle: saline with Tween-80 98 % of control

CCOC(=O)N1CCN(CCO)CC1
inactive: [1] 102 % of control | [2] 94 % of control

CCC1=C(CC2NCCc3cc(OC)c(OC)cc32)CC2c3ccccc3CCN2C1 (stereo not given)
inactive: dose: 4.0 mg/kg/injection, schedule: Q04DX003 (ip), vehicle: water 105 % of control and 106 % of control | dose: 8.0 mg/kg/injection, schedule: Q04DX003 (ip), vehicle: water 104 % of control and 108 % of control | dose: 16.0 mg/kg/injection, schedule: Q04DX003 (ip), vehicle: water 112 % of control and 100 % of control | dose: 32.0 mg/kg/injection, schedule: Q04DX003 (ip), vehicle: water 105 % of control and 98 % of control | dose: 64.0 mg/kg/injection, schedule: Q04DX003 (ip), vehicle: water 100 % of control | [3] 100 % of control and 97 % of control | [4] 101 % of control and 103 % of control

O=C(c1ccccc1)c1ccc(Cl)c(Cl)c1
inactive: [5] 98 % of control | [6] 89 % of control | [7] 93 % of control

CC/C=C(CC)/C(CC)=C(/CC)CO
inactive: dose: 100.0 mg/kg/injection, schedule: Q01DX001 (ip), vehicle: saline with Tween-80 103 % of control | dose: 200.0 mg/kg/injection, schedule: Q01DX001 (ip), vehicle: saline with Tween-80 95 % of control | dose: 400.0 mg/kg/injection, schedule: Q01DX001 (ip), vehicle: saline with Tween-80 92 % of control

O=C(O)c1cc(-c2ccccc2Cl)nc2ccccc12
inactive: [8] 96 % of control | [9] 94 % of control | [10] 97 % of control

CC(=O)C1CCC2C3CC=C4CC(O)C=CC4(C)C3CCC12C (stereo not given)
inactive: [5] 92 % of control | [6] 96 % of control | [7] 92 % of control

CCOc1cc(C=Nc2cc(Br)c(O)c(Br)c2)ccc1N(CCCl)CCCl
inactive: dose: 13.3 mg/kg/injection, schedule: Q01DX009 (ip), vehicle: carboxymethylcellulose (CMC) 108 % of control | dose: 20.0 mg/kg/injection, schedule: Q01DX009 (ip), vehicle: carboxymethylcellulose (CMC) 100 % of control | dose: 30.0 mg/kg/injection, schedule: Q01DX009 (ip), vehicle: carboxymethylcellulose (CMC) 97 % of control | dose: 44.0 mg/kg/injection, schedule: Q01DX001 (ip), vehicle: carboxymethylcellulose (CMC) 123 % of control | [11] 123 % of control | dose: 150.0 mg/kg/injection, schedule: Q01DX001 (ip), vehicle: carboxymethylcellulose (CMC) 122 % of control

CNC(=O)C1NCCc2cc(OC)c(OC)cc21 (stereo not given)
inactive: [8] 97 % of control | [9] 95 % of control | [10] 91 % of control

CC(C)(/C=N/N=C(N)N)CCC#N
inactive: dose: 60.0 mg/kg/injection, schedule: Q01DX Z (oral), vehicle: saline 98 % of control | dose: 120.0 mg/kg/injection, schedule: Q01DX Z (oral), vehicle: saline 109 % of control | dose: 240.0 mg/kg/injection, schedule: Q01DX Z (oral), vehicle: saline 103 % of control | dose: 480.0 mg/kg/injection, schedule: Q01DX Z (oral), vehicle: saline 94 % of control and 116 % of control

NC(=O)Oc1ccccc1
inactive: [8] 98 % of control | [12] 102 % of control | [1] 95 % of control | [9] 98 % of control | [13] 111 % of control | [2] 98 % of control | [10] 96 % of control | [14] 120 % of control | [15] 103 % of control

COC(=O)c1c[nH]c2ccc(Br)cc12
inactive: [1] 108 % of control | [2] 92 % of control | [15] 89 % of control

CCCCCOCC
inactive: [8] 103 % of control | [12] 96 % of control | [9] 105 % of control | [13] 101 % of control | [10] 103 % of control | [14] 101 % of control

CC1C(=O)CC(c2ccccc2)N(C)C1c1ccccc1 (stereo not given)
inactive: [3] 96 % of control | dose: 75.0 mg/kg/injection, schedule: Q04DX003 (ip), vehicle: acetone 93 % of control | [4] 91 % of control | dose: 150.0 mg/kg/injection, schedule: Q04DX003 (ip), vehicle: acetone 98 % of control | dose: 300.0 mg/kg/injection, schedule: Q01DX001 (ip), vehicle: saline 100 % of control | dose: 300.0 mg/kg/injection, schedule: Q04DX003 (ip), vehicle: acetone 96 % of control

FC(F)(F)c1ccc(Cl)c(NC2=NCCCS2)c1
inactive: dose: 10.0 mg/kg/injection, schedule: Q01DX009 (ip), vehicle: saline 107 % of control | dose: 20.0 mg/kg/injection, schedule: Q01DX009 (ip), vehicle: saline 97 % of control | dose: 40.0 mg/kg/injection, schedule: Q01DX009 (ip), vehicle: saline 96 % of control | dose: 75.0 mg/kg/injection, schedule: Q01DX009 (ip), vehicle: saline 95 % of control | dose: 100.0 mg/kg/injection, schedule: Q01DX009 (ip), vehicle: Klucel (hydroxypropylcellulose) (HPC) 96 % of control | [5] 97 % of control | dose: 200.0 mg/kg/injection, schedule: Q01DX009 (ip), vehicle: Klucel (hydroxypropylcellulose) (HPC) 97 % of control | [6] 95 % of control | [7] 94 % of control

O=C1C2CCC(=O)N2c2ccccc2S(=O)(=O)C1c1ccccc1 (stereo not given)
inactive: dose: 12.5 mg/kg/injection, schedule: Q01DX009 (ip), vehicle: Klucel (hydroxypropylcellulose) (HPC) 95 % of control | dose: 25.0 mg/kg/injection, schedule: Q01DX009 (ip), vehicle: Klucel (hydroxypropylcellulose) (HPC) 98 % of control | dose: 25.0 mg/kg/injection, schedule: Q04DX003 (ip), vehicle: Klucel (hydroxypropylcellulose) (HPC) 96 % of control | dose: 50.0 mg/kg/injection, schedule: Q01DX009 (ip), vehicle: Klucel (hydroxypropylcellulose) (HPC) 91 % of control | dose: 50.0 mg/kg/injection, schedule: Q04DX003 (ip), vehicle: Klucel (hydroxypropylcellulose) (HPC) 96 % of control

CC(=O)OC1C2CC3C(C2)C31 (stereo not given)
inactive: dose: 50.0 mg/kg/injection, schedule: Q01DX009 (ip), vehicle: saline with Tween-80 105 % of control | dose: 100.0 mg/kg/injection, schedule: Q01DX009 (ip), vehicle: saline with Tween-80 97 % of control | dose: 200.0 mg/kg/injection, schedule: Q01DX009 (ip), vehicle: saline with Tween-80 94 % of control

O=S(=O)(CCO)CCO
inactive: dose: 50.0 mg/kg/injection, schedule: Q01DX009 (ip), vehicle: saline 100 % of control | [12] 100 % of control and 88 % of control | [13] 96 % of control and 100 % of control | [14] 97 % of control

O=C(CCCl)Oc1ccc(Cl)cc1
inactive: dose: 100.0 mg/kg/injection, schedule: Q04DX003 (ip), vehicle: saline with Tween-80 92 % of control | dose: 200.0 mg/kg/injection, schedule: Q04DX003 (ip), vehicle: saline with Tween-80 93 % of control | dose: 400.0 mg/kg/injection, schedule: Q04DX003 (ip), vehicle: saline with Tween-80 100 % of control

COC1OCC(COC(=O)c2ccc([N+](=O)[O-])cc2)C1OC(=O)c1ccc([N+](=O)[O-])cc1 (stereo not given)
inactive: [11] 88 % of control | [16] 88 % of control

O=C1CCCCCC2CC12 (stereo not given)
inactive: dose: 100.0 mg/kg/injection, schedule: Q04DX002 (sc), vehicle: olive oil, sesame oil, peanut oil 105 % of control | dose: 200.0 mg/kg/injection, schedule: Q04DX002 (sc), vehicle: olive oil, sesame oil, peanut oil 112 % of control | dose: 400.0 mg/kg/injection, schedule: Q04DX002 (sc), vehicle: olive oil, sesame oil, peanut oil 109 % of control

O=C(O)C(=O)Cc1ccc(O)cc1
inactive: dose: 50.0 mg/kg/injection, schedule: Q01DX001 (ip), vehicle: carboxymethylcellulose (CMC) 105 % of control | [11] 96 % of control | [16] 91 % of control | dose: 400.0 mg/kg/injection, schedule: Q01DX001 (ip), vehicle: carboxymethylcellulose (CMC) 100 % of control
